Laboratory results published in EP4752152A1, “STEROID COMPOUND, AND PREPARATION METHOD THEREFOR AND USE THEREOF” (Cholesgen (Shanghai) Co.Ltd., priority 2023, dated 2025).
Values after ≈ are worked out from the molar mass of the structure shown. Like-named read-outs stand apart in the source and are kept apart here.

Key:
SREBP pathway = assay: SREBP luciferase reporter gene system (SRE-luciferase assay); assay type: cell-based, human; details: Homo sapiens, Huh-7, 16 h, Huh-7/SRE-luc cells, sterol-deficient medium, 0.01-10 µM
Method in brief: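 Readout was SRE-driven luciferase normalised to GFP fluorescence in lysates of stably transfected Huh-7/SRE-luc hepatoma cells. Compounds (0.01, 0.03, 0.1, 0.3, 1.0, 3.0, 10 µM; DMSO control) were applied for 16 h in sterol-depleted medium with 2 µM lovastatin and 10 µM mevalonate; IC50 from variable-slope fit.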

[1] = Metabolic stability experiment of mouse liver microsomes; assay type: in vitro ADME
Procedure: PB solution (100 mM), MgCl2 solution (300 mM), NADPH solution (2.04 mM), and mouse liver microsome (SHQY catalog number: M1000, batch number: 2110330) solution (1.00 mg/mL) were prepared respectively. […] Then, 100 µL of mouse liver microsome solution was added to a 96-well sample plate. For the 0 min sample, acetonitrile solution containing the internal standard was first added; then, 2 µL of 100 µM working solution was added; followed by the addition of 98 µL of pre-warmed 2.04 mM NADPH at 37°C. For the 5 min, 15 min, 30 min, 45 min, and 60 min samples, 2 µL of 100 µM working solution was first added; followed by the addition of 98 µL of pre-warmed 2.04 mM NADPH at 37°C to initiate the reaction; upon reaching the respective time points, a solution of acetonitrile containing the internal standard was added to terminate the reaction. For the NCF60 sample, 2 µL of 100 µM working solution was first added; followed by the addition of 98 µL of pre-warmed PB at 37°C to initiate the reaction; upon reaching the respective time points, a solution of acetonitrile containing the internal standard was added to terminate the reaction. During the experiment, all samples were incubated in a 37°C water bath. All samples were shaken on an oscillator at 800 rpm for 10 min, then centrifuged at 3200 g for 20 min. The supernatant was aspirated, diluted with deionized water at the corresponding ratio, and analyzed by LC-MS/MS. The remaining percentage of the compound at each time point was obtained by dividing the peak area ratio of the compound at 5, 15, 30, 45, and 60 min by the peak area ratio at 0 min. The half-life (T1/2) of the compound was then calculated using Excel. Table 2: Mouse liver microsome stability results of compounds from some examples

[2] = Solubility in fasted-state simulated intestinal fluid (FaSSIF); assay type: physicochemical; details: FaSSIF, pH 6.5, fassif, kinetic from dmso stock, FaSSIF pH 6.5, 300 µM sample solution, room temperature
Procedure: Compound powder was dissolved in DMSO to prepare a 10.0 mM stock solution for later use. 0.021 g NaOH, 0.198 g NaH2PO4, and 0.309 g NaCl were weighed and added to 50.0 mL of ultrapure water. After thorough mixing, the pH was adjusted to 6.5 using HCl or NaOH. Then, 0.112 g of FaSSIF powder was added. After complete dissolution, the solution was allowed to stand at room temperature for 2 hours for later use. A certain volume of the compound stock solution was added to a certain volume of FaSSIF to prepare a 300 µM sample solution, which was mixed at room temperature under 1000 rpm for 1 hour. After 1 hour, the sample was centrifuged, and a certain volume of supernatant was taken. The termination solution was added to precipitate the sample, which was then thoroughly mixed and centrifuged for 20 minutes. The supernatant was then taken again, diluted with dilution solution, and then analyzed by liquid chromatography-tandem mass spectrometry (LC-MS/MS). The concentration of the test compound in the samples was quantitatively determined using LC-MS/MS. Table 3: FaSSIF solubility results of compounds from some examples

[3] = tested on: Fatty Acid Synthase (FASN) gene; assay: Inhibition of FASN gene expression (qPCR) in Huh-7 cells; assay type: cell-based, human; details: Homo sapiens, Huh-7, 16 h, Huh-7 cells, starvation medium, 16 hours, qPCR, read-out: FASN IC50
Method in brief: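 IC50 derived by four-parameter fit of FASN expression inhibition versus DMSO, measured by RT-qPCR. Compound exposure lasted 16 h at five 3-fold concentrations from 3000 nM, applied to Huh-7 cells in sterol-depleting medium with 5% LPDS, 2 µM lovastatin and 10 µM mevalonate.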

SMILES	IC50 (SREBP pathway) [µM]	half-life at 1 µM [1] [h]	solubility at 1 h [2] [µM]	IC50 ([3]; numeric value) [µM]	IC50 ([3]; class symbols) [µM]
C[C@H](CCCC(C)(C)O)[C@H]1CC[C@@]2(C)C3=C(CC[C@]12C)[C@@]1(C)CC[C@H](O)C(C)(C)[C@@H]1CC3 [Comparative compound 1, reference compound]	0.293	0.131	105 (≈ 46.7 µg/mL)	0.959	
C[C@H](CCCC(O)c1ccccc1OC(F)(F)F)[C@H]1CC[C@H]2[C@H]3[C@H](CC[C@]12C)[C@@]1(C)CC[C@H](O)[C@H](O)[C@@H]1CC3(F)F (stereo partly drawn) [Compound 1, (1R,3aS,3bS,5aR,6R,7S,9aR,9bS,11aR)-4,4-difluoro-1-[(2R)-6-hydroxy-6-{2-[(trifluoromethyl)oxy]phenyl}hexan-2-yl]-9a,11a-dimethylhexadecahydro-1H-cyclopenta[1,2-a]phenanthrene-6,7-diol]	0.33	2.78	140 (≈ 82.4 µg/mL)		
C[C@H](CCCC(O)c1c(F)cccc1F)[C@H]1CC[C@H]2C3=C(F)C[C@H]4[C@@H](O)[C@@H](O)CC[C@]4(C)[C@H]3CC[C@]12C (stereo partly drawn) [Compound 21, (1R,3aR,5aR,6R,7S,9aR,9bR,11aR)-1-[(2R)-6-(2,6-difluorophenyl)-6-hydroxyhexan-2-yl]-4-fluoro-9a,11a-dimethyl-2,3,3a,5,5a,6,7,8,9,9a,9b,10,11,11a-tetradecahydro-1H-cyclopenta[1,2-a]phenanthrene-6,7-diol]	0.23	2.69	246 (≈ 128 µg/mL)		
COc1cc(F)ccc1C(O)CCC[C@@H](C)[C@H]1CC[C@H]2[C@H]3[C@H](CC[C@]12C)[C@@]1(C)CC[C@H](O)[C@H](O)[C@@H]1CC3(F)F (stereo partly drawn) [Compound 35, (1R,3aS,3bS,5aR,6R,7S,9aR,9bS,11aR)-4,4-difluoro-1-[(2R)-6-(4-fluoro-2-methoxyphenyl)-6-hydroxyhexan-2-yl]-9a,11a-dimethylhexadecahydro-1H-cyclopenta[1,2-a]phenanthrene-6,7-diol]	0.051	> 3.1	160 (≈ 88.4 µg/mL)		0.2 to 0.5
COc1ccccc1C(O)CCC[C@@H](C)[C@H]1CC[C@H]2[C@H]3[C@H](CC[C@]12C)[C@@]1(C)CC[C@H](O)[C@H](O)[C@@H]1CC3(F)F (stereo partly drawn) [Compound 37, (1R,3aS,3bS,5aR,6R,7S,9aR,9bS,11aR)-4,4-difluoro-1-[(2R)-6-hydroxy-6-(2-methoxyphenyl)hexan-2-yl]-9a,11a-dimethylhexadecahydro-1H-cyclopenta[1,2-a]phenanthrene-6,7-diol]	0.03	2.19	207 (≈ 111 µg/mL)		0.2 to 0.5
COc1ccccc1C(O)CCC[C@@H](C)[C@H]1CC[C@H]2C3=C(F)C[C@H]4[C@@H](O)[C@@H](O)CC[C@]4(C)[C@H]3CC[C@]12C (stereo partly drawn) [Compound 38, (1R,3aR,5aR,6R,7S,9aR,9bR,11aR)-4-fluoro-1-[(2R)-6-hydroxy-6-(2-methoxyphenyl)hexan-2-yl]-9a,11a-dimethyl-2,3,3a,5,5a,6,7,8,9,9a,9b,10,11,11a-tetradecahydro-1H-cyclopenta[1,2-a]phenanthrene-6,7-diol]	0.11	0.203	184 (≈ 94.8 µg/mL)		
COc1cccc(C(O)CCC[C@@H](C)[C@H]2CC[C@H]3[C@H]4[C@H](CC[C@]23C)[C@@]2(C)CC[C@H](O)[C@H](O)[C@@H]2CC4(F)F)c1 (stereo partly drawn) [Compound 39, (1R,3aS,3bS,5aR,6R,7S,9aR,9bS,11aR)-4,4-difluoro-1-[(2R)-6-hydroxy-6-(3-methoxyphenyl)hexan-2-yl]-9a,11a-dimethylhexadecahydro-1H-cyclopenta[1,2-a]phenanthrene-6,7-diol]	0.19	1.95	177 (≈ 94.6 µg/mL)		
C[C@H](CCCC(O)c1cccc(F)c1)[C@H]1CC[C@H]2[C@H]3[C@H](CC[C@]12C)[C@@]1(C)CC[C@H](O)[C@H](O)[C@@H]1CC3(F)F (stereo partly drawn) [Compound 44, (1R,3aS,3bS,5aR,6R,7S,9aR,9bS,11aR)-4,4-difluoro-1-[(2R)-6-(3-fluorophenyl)-6-hydroxyhexan-2-yl]-9a,11a-dimethylhexadecahydro-1H-cyclopenta[1,2-a]phenanthrene-6,7-diol]	0.152	> 3.1	225 (≈ 118 µg/mL)		
COc1c(F)cccc1C(O)CCC[C@@H](C)[C@H]1CC[C@H]2[C@H]3[C@H](CC[C@]12C)[C@@]1(C)CC[C@H](O)[C@H](O)[C@@H]1CC3(F)F (stereo partly drawn) [Compound 46, (1R,3aS,3bS,5aR,6R,7S,9aR,9bS,11aR)-4,4-difluoro-1-[(2R)-6-(2-methoxy-3-fluorophenyl)-6-hydroxyhexan-2-yl]-9a,11a-dimethylhexadecahydro-1H-cyclopenta[1,2-a]phenanthrene-6,7-diol]	0.07	2.6	277 (≈ 153 µg/mL)		
COc1cccc(F)c1C(O)CCC[C@@H](C)[C@H]1CC[C@H]2[C@H]3[C@H](CC[C@]12C)[C@@]1(C)CC[C@H](O)[C@H](O)[C@@H]1CC3(F)F (stereo partly drawn) [Compound 49, (1R,3aS,3bS,5aR,6R,7S,9aR,9bS,11aR)-4,4-difluoro-1-[(2R)-6-(2-fluoro-6-methoxyphenyl)-6-hydroxyhexan-2-yl]-9a,11a-dimethylhexadecahydro-1H-cyclopenta[1,2-a]phenanthrene-6,7-diol]	0.06	1.88	281 (≈ 155 µg/mL)		0.2 to 0.5
COc1ccc(C(O)CCC[C@@H](C)[C@H]2CC[C@H]3[C@H]4[C@H](CC[C@]23C)[C@@]2(C)CC[C@H](O)[C@H](O)[C@@H]2CC4(F)F)cc1 (stereo partly drawn) [Compound 50, (1R,3aS,3bS,5aR,6R,7S,9aR,9bS,11aR)-4,4-difluoro-1-[(2R)-6-(4-methoxyphenyl)-6-hydroxyhexan-2-yl]-9a,11a-dimethylhexadecahydro-1H-cyclopenta[1,2-a]phenanthrene-6,7-diol]	0.188	1.8	248 (≈ 132 µg/mL)		
COc1cccc(C(O)CCC[C@@H](C)[C@H]2CC[C@H]3[C@H]4[C@H](CC[C@]23C)[C@@]2(C)CC[C@H](O)[C@H](O)[C@@H]2CC4(F)F)c1F (stereo partly drawn) [Compound 63, (1R,3aS,3bS,5aR,6R,7S,9aR,9bS,11aR)-4,4-difluoro-1-[(2R)-6-(2-fluoro-3-methoxyphenyl)-6-hydroxyhexan-2-yl]-9a,11a-dimethylhexadecahydro-1H-cyclopenta[1,2-a]phenanthrene-6,7-diol]	0.121	> 3.08	147 (≈ 81.1 µg/mL)		< 0.2
C[C@H](CCCC(O)c1cccc(OC(F)(F)F)c1)[C@H]1CC[C@H]2[C@H]3[C@H](CC[C@]12C)[C@@]1(C)CC[C@H](O)[C@H](O)[C@@H]1CC3(F)F (stereo partly drawn) [Compound 84, (1R,3aS,3bS,5aR,6R,7S,9aR,9bS,11aR)-4,4-difluoro-1-[(2R)-6-hydroxy-6-{3-[(trifluoromethyl)oxy]phenyl}hexan-2-yl]-9a,11a-dimethylhexadecahydro-1H-cyclopenta[1,2-a]phenanthrene-6,7-diol]	0.204	> 3.08			0.2 to 0.5
C[C@H](CCCC(O)c1ccccc1OC(F)(F)F)[C@H]1CC[C@H]2[C@H]3[C@H](CC[C@]12C)[C@@]1(C)CC[C@H](O)C(=O)[C@@H]1CC3(F)F (stereo partly drawn) [Compound 97, (1R,3aS,3bS,5aR,7S,9aR,9bS,11aR)-4,4-difluoro-7-hydroxy-1-[(2R)-6-hydroxy-6-{2-[(trifluoromethyl)oxy]phenyl}hexan-2-yl]-9a,11a-dimethylhexadecahydro-1H-cyclopenta[1,2-a]phenanthren-6-one]	0.0741	1.78			< 0.2
